In one assay the test system is HSV-1 KOS strain. The assay can be described thus: Synergistic studies of acyclovir and the title compound of example 9 in the cell culture assay, HSV-1 KOS strain. The format is cell-based, Herpes simplex virus type 1. The conditions noted are these: for EC50: MOI = 0.05 PFU/cell. The procedure:
BHK-21 cells clone 13 (ATCC CCL10) were incubated for two days in 850 cm^2 roller bottles (2×10^7 cells/bottle) with alpha-MEM medium (Gibco Canada Inc., Burlington, Ontario, Canada) supplemented with 8% (v/v) fetal bovine serum (FBS, Gibco Canada, Inc.). The cells were trypsinized and then transferred to fresh media in a 96-well microtiter plate at a density of 50,000 cells per well in 100 μL. The cells were incubated at 37° for a period of 6 hours to allow adhesion to the plate. The cells then were washed once with 100 μL of alpha-MEM supplemented with 0.5% FBS (v/v) and incubated with 100 μL of the same media for 3 days. After this period of serum starvation, the low serum media was removed. The cells were washed once with 100 μL BBMT and incubated for two hours in 100 μL of the same media. {Note: BBMT medium is described by P. Brazeau et al., Proc. Natl. Acad. Sci. U.S.A., 79, 7909 (1980).}
Thereafter, the cells were infected with HSV-1 strain F or KOS (multiplicity of infection =0.05 PFU/cell) in 50 μL of BBMT medium. Following one hour of virus absorption at 37°, the media was removed and the cells were washed with BBMT (2×100 μL). The cells were incubated with or without 100 μL of the appropriate concentration of test reagent in BBMT medium. After 24 hours of incubation at 37°, the extent of viral replication was determined by an ELISA assay; for instance, the following assay that detects the late glycoprotein C of HSV-1.
Cells were fixed in a microtiter plate with 100 μL of 0.063% glutaraldehyde in phosphate buffered saline for 30 minutes at room temperature. The microtiter plate was then washed once with casein blocking solution and blocked with 200 μL of the same solution for one hour at room temperature. Thereafter, 100 μL of mAB Cll recognizing HSV-1 gC envelope protein [see E. Trybala et al., Journal of General Virology, 75, 743 (1994)] was added to each well for two hours at room temperature. The plate was washed three times with phosphate buffered saline containing 0.05% polyoxyethylene (20) sorbitan monooleate. The cells were and incubated with 100 μL of sheep anti-mouse IgC horseradish peroxidase for one hour at room temperature in the dark.
The plate then was washed three times with 200 μL of the above-noted phosphate buffer saline preparation, and then once with 0.1M sodium citrate (pH 4.5). Thereafter, 100 μL of orthophenylenediamine dihydrochloride (OPD, Gibco, Canada Inc.) was added to each well. The plate was agitated on a microplate shaker for 30 minutes in the dark. Color development was monitored at 450 nm using a microplate spectrophotometer.
SAS was used to calculate % inhibition of viral replication and to generate ECl50 values.
The results are illustrated in accompanying FIG. 1.
More explicitly with reference to the isobole method, this method requires experimental data generated for the two test compounds, each alone and in different combinations. In this way selected concentrations of the title compound of example 9 (EC5, EC10, EC20 and EC30) were added to a given concentration of ACV and the EC50 's were evaluated as described previously. For these experiments, the EC5, EC10, EC20 and EC30 of the title compound of example 9 (i.e. the test compound) were derived from inhibition curves previously obtained. An isobologram is generated using for the Y axis a value termed FEC60 (ACV) (which is the ratio of the concentration of ACV required to inhibit HSV replication by 60% in the presence of a fixed concentration of the test compound to the concentration required in the absence of the test compound). This is plotted against a term representing the ratio of the fixed concentration of the test compound to the concentration of the test compound that reduced inhibition of HSV replication in the absence of ACV (the X axis).
The following TABLE III is illustrative of results obtained when combinations of ACV and the title compound of example 9 (TC) were evaluated for their antiherpes activity against HSV-1. […]

The target of assay [1] is T1, HSV-1 ribonucleotide reductase (Human herpesvirus 1, UniProt P08543).
T1 construct: HSV-1 ribonucleotide reductase (partially purified) was obtained from quiescent BHK-21/Cl13 cells infected with strain F HSV-1 virus; made in house; host or cells: quiescent BHK-21/C13 hamster cells infected with HSV-1 strain F; native viral enzyme, partially purified
T1 sequence (P08543 whole entry): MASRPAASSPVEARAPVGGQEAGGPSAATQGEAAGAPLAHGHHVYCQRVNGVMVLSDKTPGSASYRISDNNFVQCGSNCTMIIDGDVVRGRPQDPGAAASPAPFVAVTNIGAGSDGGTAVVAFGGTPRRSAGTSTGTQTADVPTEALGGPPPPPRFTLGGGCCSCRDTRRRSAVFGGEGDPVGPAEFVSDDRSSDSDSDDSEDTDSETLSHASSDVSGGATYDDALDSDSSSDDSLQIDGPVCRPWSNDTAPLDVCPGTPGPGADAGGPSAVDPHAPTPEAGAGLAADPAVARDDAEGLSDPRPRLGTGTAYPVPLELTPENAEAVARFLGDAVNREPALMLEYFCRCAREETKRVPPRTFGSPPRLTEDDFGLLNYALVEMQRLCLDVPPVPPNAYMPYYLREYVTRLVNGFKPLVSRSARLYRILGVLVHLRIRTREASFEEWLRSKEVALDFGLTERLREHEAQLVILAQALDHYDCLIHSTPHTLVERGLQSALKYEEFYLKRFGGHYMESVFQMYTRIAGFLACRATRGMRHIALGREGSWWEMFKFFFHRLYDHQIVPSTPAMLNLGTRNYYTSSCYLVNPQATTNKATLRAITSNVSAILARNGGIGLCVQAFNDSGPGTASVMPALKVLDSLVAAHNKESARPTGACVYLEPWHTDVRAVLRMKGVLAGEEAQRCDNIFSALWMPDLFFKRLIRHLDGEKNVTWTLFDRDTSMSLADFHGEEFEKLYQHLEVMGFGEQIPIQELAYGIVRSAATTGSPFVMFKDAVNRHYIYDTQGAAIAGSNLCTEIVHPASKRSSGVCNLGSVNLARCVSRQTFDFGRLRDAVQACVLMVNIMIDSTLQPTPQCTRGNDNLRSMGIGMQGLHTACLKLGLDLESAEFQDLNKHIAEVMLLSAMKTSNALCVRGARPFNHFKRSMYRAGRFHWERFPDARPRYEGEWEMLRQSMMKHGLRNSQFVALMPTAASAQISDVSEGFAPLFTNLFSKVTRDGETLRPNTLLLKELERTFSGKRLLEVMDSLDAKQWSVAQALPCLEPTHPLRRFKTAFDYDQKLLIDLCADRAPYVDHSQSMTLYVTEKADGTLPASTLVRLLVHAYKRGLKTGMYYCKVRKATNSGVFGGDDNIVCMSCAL
The assay can be described thus: Inhibition of Herpes Simplex Virus (HSV-1) ribonucleotide reductase. The assay is classed as biochemical. The conditions noted are these: partially purified enzyme from HSV-1 strain F infected BHK-21/C13 cells; mean of four assays; read-out: IC50 (concentration producing 50% of the maximal inhibition of enzyme activity). An excerpt: HSV-1 ribonucleotide reductase (partially purified) was obtained from quiescent BHK-21/Cl13 cells infected with strain F HSV-1 virus at 10 plaque forming units/cell as described by E. A. Cohen et al., J. Gen. Virol., 66, 733 (1985).
The assay described by P. Gaudreau et al., J. Biol, Chem., 262, 12413 (1987), is used to evaluate the capability of the compounds of formula 1 to inhibit HSV-1 ribonucleotide reductase activity. The assay results are expressed as the concentration of the compound producing 50% of the maximal inhibition (IC50) of enzyme activity. The number of units of the enzyme preparation used in each assay was constant, based on the specific activity of the enzyme preparation. The results are relative to the activity obtained in control experiments without the test compound and represent the means of four assays that varied less than 10% with each other.

A further assay has as its system HSV-1 strain F. The assay can be described thus: Inhibition of HSV-1 replication in cell culture (BHK-21 cells, ELISA of glycoprotein C), strain F. The note with it: 24 hours incubation, read-out: EC50 (inhibition of viral replication). The format is cell-based, Herpes simplex virus type 1. The protocol: BHK-21 cells clone 13 (ATCC CCL10) were incubated for two days in 850 cm^2 roller bottles (2×10^7 cells/bottle) with alpha-MEM medium (Gibco Canada Inc., Burlington, Ontario, Canada) supplemented with 8% (v/v) fetal bovine serum (FBS, Gibco Canada, Inc.). The cells were trypsinized and then transferred to fresh media in a 96-well microtiter plate at a density of 50,000 cells per well in 100 μL. The cells were incubated at 37° for a period of 6 hours to allow adhesion to the plate. The cells then were washed once with 100 μL of alpha-MEM supplemented with 0.5% FBS (v/v) and incubated with 100 μL of the same media for 3 days. After this period of serum starvation, the low serum media was removed. The cells were washed once with 100 μL BBMT and incubated for two hours in 100 μL of the same media. {Note: BBMT medium is described by P. Brazeau et al., Proc. Natl. Acad. Sci. U.S.A., 79, 7909 (1980).} Thereafter, the cells were infected with HSV-1 strain F or KOS (multiplicity of infection =0.05 PFU/cell) in 50 μL of BBMT medium. Following one hour of virus absorption at 37°, the media was removed and the cells were washed with BBMT (2×100 μL). The cells were incubated with or without 100 μL of the appropriate concentration of test reagent in BBMT medium. After 24 hours of incubation at 37°, the extent of viral replication was determined by an ELISA assay; for instance, the following assay that detects the late glycoprotein C of HSV-1. Cells were fixed in a microtiter plate with 100 μL of 0.063% glutaraldehyde in phosphate buffered saline for 30 minutes at room temperature. The microtiter plate was then washed once with casein blocking solution and blocked with 200 μL of the same solution for one hour at room temperature. […] Color development was monitored at 450 nm using a microplate spectrophotometer. […] The following TABLE II provides examples of the results obtained when compounds of formula 1 were evaluated according to the cell culture assay (HSV-1 strain F) of this example.

Like-named read-outs stand apart in the source and are kept apart here.

For `Nc1nc2c(ncn2COCCO)c(=O)[nH]1` [ACV, acyclovir], the EC50 in the assay on HSV-1 KOS strain (ACV + 0.05 μM of TC, read-out: EC50 of ACV in combination) was found to be 6300 nM; in the assay with HSV-1 KOS strain (ACV + 0.1 μM of TC, read-out: EC50 of ACV in combination), 3200 nM; in the assay with HSV-1 KOS strain (ACV + 0.15 μM of TC, read-out: EC50 of ACV in combination), 1790 nM; with HSV-1 KOS strain (ACV + 0.2 μM of TC, read-out: EC50 of ACV in combination) it was 1790 nM; with HSV-1 KOS strain (ACV + 0.3 μM of TC, read-out: EC50 of ACV in combination), 1000 nM; in the assay on HSV-1 KOS strain (ACV + 0.4 μM of TC, read-out: EC50 of ACV in combination) it was 500 nM. The EC50 in the assay with HSV-1 KOS strain (compound alone, read-out: EC50) worked out at 6950 nM.
Take `CC[C@@H](NC(=O)[C@@H](NC(=O)[C@@H](CC(=O)[C@@H](NC(=O)[C@H](C(C)C)N(C)C(=O)[C@H](C)CC1CCCCC1)C(C)(C)C)CC(=O)C(C)(C)C)C1(C(=O)O)CCCC1)C(C)(C)C` [R^1 =H and R^2 =Me, (3-Cyclohexyl-2(R)-methyl-1-oxopropyl)-(N--Me) Val-Tbg-CH2 --(R)--CH(CH2 C(O)CMe3)--C (O)-Asp(cyPn)-NH--(R)--CH(Et)CMe3]: in assay [1], the IC50 stood at 147 nM. Further, the EC50 is 473 nM in the assay with HSV-1 KOS strain (compound alone, read-out: EC50) and 400 nM in the assay with HSV-1 strain F. In the assay on HSV-1 KOS strain (increasing concentrations of the title compound of example 9), the “Effect of combining with acyclovir on the EC50 of acyclovir (synergy, isobole method)” value is given as “proportional lowering of the EC50 of acyclovir”.
As for “(3-cyclohexyl-2 (R), 3 (R)-dimethyl-1-oxopropyl)-(N-Me) Val-Tbg-CH2 --(R)--CH (CH2 C(O) CMe3)C(O)-Asp (cyPn)-NH--(R)--CH (Et) CMe3 [R^1 and R^2 =Me]”, the IC50 in assay [1] was found to be 191 nM. Further, the EC50 in the assay with HSV-1 strain F was 200 nM.
For the molecule “{3-cyclohexyl-2(S)-(1-methylethyl)-1-oxopropyl}-(N-Me) Val-Tbg-CH2 --(R)--CH(CH2 C(O)CMe3)C(O)-Asp(cypn)-NH--(R)--CH (Et)CMe3 [R^1 =H and R^2 =CHMe2]”, the IC50 in assay [1] came to 123 nM. The EC50 with HSV-1 strain F worked out at 200 nM.

Usually EC50 stands for the concentration needed to bring the measured effect to its halfway point.
